Reference: patent publication US20140378406A1, “SILVER BASED GELS FOR ANTIMICROBIAL APPLICATIONS” (The University of Akron, priority 2012, published 2014)

Legend:
Assay in all cases: Minimal inhibitory concentration (MIC), CLSI procedures
Format in all cases: cell-based
Pseudomonas aeruginosa = test system: Pseudomonas aeruginosa
Description: (§1) The combination of aqueous solutions of 50 mM glutathione and 50 mM silver carbene complex SCC22 at ambient conditions in a 1:1.25 ratio (final concentration 20 mM glutathione and 25 mM SCC22) results in a colorless hydrogel material. The gel was tested to determine its minimal inhibitory concentration (MIC) on three bacterial species including Pseudomonas aeruginosa, Staphylococcus aureus, and Escherichia coli using procedures published by the Clinical and Laboratory Standards Institute. The combination of aqueous solutions of 50 mM glutathione and 50 mM silver carbene complex SCC1 at ambient conditions in a 1:1.67 ratio (final concentration 15 mM glutathione and 25 mM SCC1) results in a colorless hydrogel material. The gel was tested to determine its minimal inhibitory concentration (MIC) on three bacterial species including Pseudomonas aeruginosa, Staphylococcus aureus, and Escherichia coli using procedures published by the Clinical and Laboratory Standards Institute. The combination of aqueous solutions of 50 mM glutathione and 50 mM silver carbene complex SCC8 at ambient conditions in a 1:1.25 ratio (final concentration 20 mM glutathione and 25 mM SCC8) results in a colorless hydrogel material (GSH8). The gel was tested to determine its minimal inhibitory concentration (MIC) on three bacterial species including Pseudomonas aeruginosa, Staphylococcus aureus, and Escherichia coli using procedures published by the Clinical and Laboratory Standards Institute.

Escherichia coli = test system: Escherichia coli
Description: as §1

Staphylococcus aureus = test system: Staphylococcus aureus
Description: as §1

NC[C@H]1O[C@H](O[C@H]2[C@H](O)[C@@H](O[C@H]3O[C@H](CO)[C@@H](O)[C@H](N)[C@H]3O)[C@H](N)C[C@@H]2N)[C@H](N)C[C@@H]1O [Tobramycin]
4 µg/mL: MIC P. aeruginosa (Pseudomonas aeruginosa) | MIC E. coli (Escherichia coli) | MIC S. aureus (Staphylococcus aureus)
